Laboratory results published in patent publication US7825114B2, “Substituted aminopyrazolopyridines and salts thereof, pharmaceutical compositions comprising same, methods of preparing same and uses of same” (Bayer Schering Pharma AG, priority 2006, dated 2010).

Columns and labels:
human c-kit = target: T1, human c-kit (Homo sapiens, UniProt P10721); assay: cKIT-Kinase HTRF-Assay (assay 4); assay type: biochemical; details: for IC50: GST-tagged kinase domain of human c-kit, 10 μM ATP; for Selectivity vs. cKit: IC50 assay 4/IC50 assay 2
T1 construct: GST-tagged recombinant kinase domain of the human c-kit; GST; host or cells: SF-9 insect cells
Experimental: Assay 4: cKIT-Kinase HTRF-Assay
c-Kit-inhibitory activity of compounds of the present invention was quantified employing the c-kit HTRF assay as described in the following paragraphs. GST-tagged recombinant kinase domain of the human c-kit expressed in SF-9 cells was used as kinase. As substrate for the kinase reaction biotinylated poly-(Glu,Tyr) (Cis biointernational, France) was used.
c-Kit was incubated for 30 min at 22° C. in the presence of different concentrations of test compounds in 5 μl assay buffer [50 mM Hepes/NaOH pH 7.0, 1 mM MgCl2, 5 mM MnCl2, 1.0 mM dithiothreitol, 0.1 mM sodium ortho-vanadate, 10 μM adenosine-tri-phosphate (ATP), 1.3 μg/ml substrate, 0.001% (v/v) Nonidet-P40 (Sigma), 1% (v/v) dimethylsulfoxide]. The concentration of c-kit was adjusted depending of the activity of the enzyme lot and was chosen appropriate to have the assay in the linear range. The reaction was stopped by the addition of 5 μl of a solution of HTRF detection reagents (0.1 μM streptavidine-XLent and 1 nM PT66-Eu-Chelate, an europium-chelate labelled anti-phospho-tyrosine antibody from Perkin Elmer) in an aqueous EDTA-solution (80 mM EDTA, 0.2% (w/v) bovine serum albumin in 50 mM HEPES/NaOH pH 7.0).
(§1) The resulting mixture was incubated 1 h at 22° C. to allow the binding of the biotinylated phosphorylated peptide to the streptavidine-XLent and the PT66-Eu-Chelate. Subsequently the amount of phosphorylated substrate was evaluated by measurement of the resonance energy transfer from the PT66-Eu-Chelate to the streptavidine-XLent. Therefore, the fluorescence emissions at 620 nm and 665 nm after excitation at 350 nm was measured in a HTRF reader, e.g. a Rubystar (BMG Labtechnologies, Offenburg, Germany) or a Viewlux (Perkin-Elmer). The ratio of the emissions at 665 nm and at 622 nm was taken as the measure for the amount of phosphorylated substrate.

Tie2 [1] = target: T2, Tie2 (Homo sapiens, UniProt Q02763); assay: Tie2 ELISA assay (assay 1): cellular Tie2 autophosphorylation; assay type: cell-based; set-up: expressed in transfected cells; host or cells: CHO (DHFR-deficient), stably transfected; details: CHO cells stably transfected with Tie2, stimulated by angiopoietin-2; Tie2 autophosphorylation by sandwich-ELISA; read-out: Tie 2 activity (assay 1)
Experimental: Assay 1: Tie2 ELISA Assay
Cellular activity of compounds of the present invention as inhibitors of Tie2 kinase activity was measured employing a Tie2 ELISA assay as described in the following paragraphs. Herein CHO cell-cultures, which are stably transfected by known techniques with Tie2 using DHFR deficiency as selection marker, are stimulated by angiopoietin-2. The specific autophosphorylation of Tie2 receptors is quantified with a sandwich-ELISA using anti-Tie2 antibodies for catch and anti-phosphotyrosine antibodies coupled to HRP for detection. […]
Target sequence in this assay (Q02763 23-1124): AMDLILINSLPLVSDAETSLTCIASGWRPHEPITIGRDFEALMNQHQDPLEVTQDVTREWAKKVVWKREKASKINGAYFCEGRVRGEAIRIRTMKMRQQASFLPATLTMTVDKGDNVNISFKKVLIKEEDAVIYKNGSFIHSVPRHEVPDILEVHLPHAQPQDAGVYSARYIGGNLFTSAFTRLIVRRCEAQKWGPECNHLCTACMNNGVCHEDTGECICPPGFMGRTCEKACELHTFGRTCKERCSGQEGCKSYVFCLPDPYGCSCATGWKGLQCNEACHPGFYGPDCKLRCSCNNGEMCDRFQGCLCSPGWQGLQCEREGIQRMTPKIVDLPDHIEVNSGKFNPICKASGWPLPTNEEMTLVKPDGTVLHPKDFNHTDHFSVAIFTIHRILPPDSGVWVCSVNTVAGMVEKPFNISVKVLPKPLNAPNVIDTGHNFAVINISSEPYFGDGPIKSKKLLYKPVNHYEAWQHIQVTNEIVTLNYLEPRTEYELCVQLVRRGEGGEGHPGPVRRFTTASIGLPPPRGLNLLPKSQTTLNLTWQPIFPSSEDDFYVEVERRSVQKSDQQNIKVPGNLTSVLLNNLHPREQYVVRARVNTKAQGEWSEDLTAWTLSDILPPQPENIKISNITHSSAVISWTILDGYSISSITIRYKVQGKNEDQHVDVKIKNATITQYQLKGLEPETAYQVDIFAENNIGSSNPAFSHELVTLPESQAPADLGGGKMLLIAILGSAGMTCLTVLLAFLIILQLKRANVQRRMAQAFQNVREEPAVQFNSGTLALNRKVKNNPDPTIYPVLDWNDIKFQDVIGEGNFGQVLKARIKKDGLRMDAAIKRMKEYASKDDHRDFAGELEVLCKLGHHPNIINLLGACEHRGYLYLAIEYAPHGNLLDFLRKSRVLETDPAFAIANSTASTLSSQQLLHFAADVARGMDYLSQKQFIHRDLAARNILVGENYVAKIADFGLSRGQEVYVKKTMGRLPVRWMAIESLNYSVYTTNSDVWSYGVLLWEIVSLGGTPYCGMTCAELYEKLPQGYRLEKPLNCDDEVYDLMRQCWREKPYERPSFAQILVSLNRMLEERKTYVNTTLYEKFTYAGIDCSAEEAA

Tie2 [2] = target: T2, Tie2; assay: Tie-2-Kinase HTRF-Assay without kinase preactivation (assay 2); assay type: biochemical; set-up: A recombinant fusion protein of GST and the intracellular domains of Tie-2; GST; made in house; host or cells: insect cells (Hi-5); details: GST-Tie-2 intracellular domains, no preactivation, 10 μM ATP
Source text: Assay 2: Tie-2-Kinase HTRF-Assay without Kinase Preactivation
Tie2-inhibitory activity of compounds of the present invention was quantified employing two Tie2 HTRF assay as described in the following paragraphs.
A recombinant fusion protein of GST and the intracellular domains of Tie-2, expressed in insect cells (Hi-5) and purified by Glutathion-Sepharose affinity chromatography was used as kinase. Alternatively, commercially available GST-Tie2-fusion protein (Upstate Biotechnology, Dundee, Scotland) can be used As substrate for the kinase reaction the biotinylated peptide biotin-Ahx-[…] (C-terminus in amid form) was used which can be purchased e.g. from the company Biosynthan GmbH (Berlin-Buch, Germany). Detection of phosphorylated product is achieved specifically by a trimeric detection complex consisting of the phosphorylated substrate, streptavidin-XLent (SA-XLent) which binds to biotin, and Europium Cryptate-labeled anti-phosphotyrosine antibody PT66 which binds to phosphorylated tyrosine.
The reaction was stopped by the addition of 5 μl of an aqueous buffer (25 mM Hepes/NaOH pH 7.5, 0.28% (w/v) bovine serum albumin) containing EDTA (90 mM) and the HTRF (Homogeneous Time Resolved Fluorescence) detection reagents streptavidine-XLent (0.2 μM, from Cis Biointernational, Marcoule, France) and PT66-Eu-Chelate (0.3 ng/μl; a europium-chelate labelled anti-phospho-tyrosine antibody from Perkin Elmer).
as §1, with “substrate peptide” for “substrate”, “substrate peptide.” for “substrate.”
Target sequence in this assay (Q02763 770-1124 limits assumed): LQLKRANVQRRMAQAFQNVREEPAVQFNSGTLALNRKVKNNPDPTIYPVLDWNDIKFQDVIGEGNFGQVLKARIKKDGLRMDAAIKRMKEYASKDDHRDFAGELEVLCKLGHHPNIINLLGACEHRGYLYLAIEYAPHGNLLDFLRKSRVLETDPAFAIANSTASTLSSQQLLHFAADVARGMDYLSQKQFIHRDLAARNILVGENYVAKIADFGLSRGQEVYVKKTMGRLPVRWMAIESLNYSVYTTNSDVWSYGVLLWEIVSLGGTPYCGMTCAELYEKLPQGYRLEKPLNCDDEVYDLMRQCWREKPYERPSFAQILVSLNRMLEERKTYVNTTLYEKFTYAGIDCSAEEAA

T1 sequence (P10721 589-937 limits assumed): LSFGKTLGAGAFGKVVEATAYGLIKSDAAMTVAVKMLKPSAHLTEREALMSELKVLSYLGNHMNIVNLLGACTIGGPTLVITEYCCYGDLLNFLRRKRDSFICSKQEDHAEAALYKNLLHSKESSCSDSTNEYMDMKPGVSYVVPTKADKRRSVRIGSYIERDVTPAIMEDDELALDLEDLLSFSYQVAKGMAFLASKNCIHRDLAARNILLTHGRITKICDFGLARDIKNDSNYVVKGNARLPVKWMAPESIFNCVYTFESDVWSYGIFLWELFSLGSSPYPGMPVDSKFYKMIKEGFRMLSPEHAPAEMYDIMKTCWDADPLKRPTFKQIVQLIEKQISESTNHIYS

| SMILES | IC50 (human c-kit) | Selectivity vs. cKit (human c-kit) | IC50 (Tie2 [1]) | IC50 (Tie2 [2]) |
| --- | --- | --- | --- | --- |
| CCOC(=O)C1(c2cc(-c3ccc(NC(=O)Nc4ccccc4)cc3)c3c(N)nn(C)c3n2)CC1 [Example 1.1, 1-{3-Amino-1-methyl-4-[4-(3-phenyl-ureido)-phenyl]-1H-pyra-zolo[3,4-b]pyridin-6-yl}-cyclopropanecarboxylic acid ethyl ester] | 1000 to 10000 nM | 4 | 100 to 1000 nM | 100 to 1000 nM |
| CCOC(=O)C1(c2cc(-c3ccc(NC(=O)Nc4cccc(C(F)(F)F)c4)cc3)c3c(N)nn(C)c3n2)CC1 [Example 1.2, 1-(3-Amino-1-methyl-4-{4-[3-(3-trifluoromethyl-phenyl)-ureido]-phenyl}-1H-pyrazolo[3,4-b]pyridin-6-yl)-cyclopropanecarboxylic acid ethyl ester] | 1000 to 10000 nM | >30 | ≤ 100 nM | ≤ 100 nM |
| CNC(=O)C1(c2cc(-c3ccc(NC(=O)Nc4cccc(C(F)(F)F)c4)cc3)c3c(N)nn(C)c3n2)CC1 [Example 1.4, 1-(3-Amino-1-methyl-4-{4-[3-(3-trifluoromethyl-phenyl)-ureido]-phenyl}-1H-pyrazolo[3,4-b]pyridin-6-yl)-cyclopropanecarboxylic acid methylamide] | 100 to 1000 nM | 9 | 100 to 1000 nM | ≤ 100 nM |
| CCNC(=O)C1(c2cc(-c3ccc(NC(=O)Nc4cccc(C(F)(F)F)c4)cc3)c3c(N)nn(C)c3n2)CC1 [Example 1.5, 1-(3-Amino-1-methyl-4-{4-[3-(3-trifluoromethyl-phenyl)-ureido]-phenyl}-1H-pyrazolo[3,4-b]pyridin-6-yl)-cyclopropanecarboxylic acid ethylamide] | 1000 to 10000 nM | >100 | 100 to 1000 nM | ≤ 100 nM |
| CC(C)NC(=O)C1(c2cc(-c3ccc(NC(=O)Nc4cccc(C(F)(F)F)c4)cc3)c3c(N)nn(C)c3n2)CC1 [Example 1.6, 1-(3-Amino-1-methyl-4-{4-[3-(3-trifluoromethyl-phenyl)-ureido]-phenyl}-1H-pyrazolo[3,4-b]pyridin-6-yl)-cyclopropanecarboxylic acid isopropyl-amide] | 1000 to 10000 nM | >100 | ≤ 100 nM | ≤ 100 nM |
| Cn1nc(N)c2c(-c3ccc(NC(=O)Nc4cccc(C(F)(F)F)c4)cc3)cc(C3(C(=O)Nc4ccccc4)CC3)nc21 [Example 1.7, 1-(3-Amino-1-methyl-4-{4-[3-(3-trifluoromethyl-phenyl)-ureido]-phenyl}-1H-pyrazolo[3,4-b]pyridin-6-yl)-cyclopropanecarboxylic acid phenylamide] | 1000 to 10000 nM | 7 | 100 to 1000 nM | 100 to 1000 nM |
| Cn1nc(N)c2c(-c3ccc(NC(=O)Nc4cccc(C(F)(F)F)c4)cc3)cc(C3(C(=O)NCCN4CCOCC4)CC3)nc21 [Example 1.8, 1-(3-Amino-1-methyl-4-{4-[3-(3-trifluoromethyl-phenyl)-ureido]-phenyl}-1H-pyrazolo[3,4-b]pyridin-6-yl)-cyclopropanecarboxylic acid (2-morpholin-4-yl-ethyl)-amide] | 1000 to 10000 nM | 15 | ≤ 100 nM | 100 to 1000 nM |
| CN(C)CCNC(=O)C1(c2cc(-c3ccc(NC(=O)Nc4cccc(C(F)(F)F)c4)cc3)c3c(N)nn(C)c3n2)CC1 [Example 1.9, 1-(3-Amino-1-methyl-4-{4-[3-(3-trifluoromethyl-phenyl)-ureido]-phenyl}-1H-pyrazolo[3,4-b]pyridin-6-yl)-cyclopropanecarboxylic acid (2-dimethylamino-ethyl)-amide] | 100 to 1000 nM | 10 | 100 to 1000 nM | ≤ 100 nM |
| CN(C)C(=O)C1(c2cc(-c3ccc(NC(=O)Nc4cccc(C(F)(F)F)c4)cc3)c3c(N)nn(C)c3n2)CC1 [Example 1.10, 1-(3-Amino-1-methyl-4-{4-[3-(3-trifluoromethyl-phenyl)-ureido]-phenyl}-1H-pyrazolo[3,4-b]pyridin-6-yl)-cyclopropanecarboxylic acid dimethylamide] | 1000 to 10000 nM | 12 | ≤ 100 nM | ≤ 100 nM |
| CCN(CC)C(=O)C1(c2cc(-c3ccc(NC(=O)Nc4cccc(C(F)(F)F)c4)cc3)c3c(N)nn(C)c3n2)CC1 [Example 1.11, 1-(3-Amino-1-methyl-4-{4-[3-(3-trifluoromethyl-phenyl)-ureido]-phenyl}-1H-pyrazolo[3,4-b]pyridin-6-yl)-cyclopropanecarboxylic acid diethylamide] | 1000 to 10000 nM | 24 | ≤ 100 nM | ≤ 100 nM |
| Cn1nc(N)c2c(-c3ccc(NC(=O)Nc4cccc(C(F)(F)F)c4)cc3)cc(C3(C(=O)NC4CC4)CC3)nc21 [Example 1.12, 1-(3-Amino-1-methyl-4-{4-[3-(3-trifluoromethyl-phenyl)-ureido]-phenyl}-1H-pyrazolo[3,4-b]pyridin-6-yl)-cyclopropanecarboxylic acid cyclopropylamide] | 1000 to 10000 nM | >100 | ≤ 100 nM | ≤ 100 nM |
| Cn1nc(N)c2c(-c3ccc(NC(=O)Nc4cccc(C(F)(F)F)c4)cc3)cc(C3(C(=O)N4CCCC4)CC3)nc21 [Example 1.13, 1-(4-{3-Amino-1-methyl-6-[1-(pyrrolidine-1-carbonyl)-cyclopropyl]-1H-pyrazolo[3,4-b]pyridin-4-yl}-phenyl)-3-(3-trifluoromethyl-phenyl)-urea] | 1000 to 10000 nM | >100 | ≤ 100 nM | ≤ 100 nM |
| Cn1nc(N)c2c(-c3ccc(NC(=O)Nc4cccc(C(F)(F)F)c4)cc3)cc(C3(C(=O)NCCO)CC3)nc21 [Example 1.14, 1-(3-Amino-1-methyl-4-{4-[3-(3-trifluoromethyl-phenyl)-ureido]-phenyl}-1H-pyrazolo[3,4-b]pyridin-6-yl)-cyclopropanecarboxylic acid (2-hydroxy-ethyl)-amide] | 100 to 1000 nM | 11 | 100 to 1000 nM | ≤ 100 nM |
| CN(C)C(=O)C[C@@H]1C[C@H](c2cc(-c3ccc(NC(=O)Nc4cccc(C(F)(F)F)c4)cc3)c3c(N)nn(C)c3n2)C1(C)C [Example 8.4, 2-[3-(3-Amino-1-methyl-4-{4-[3-(3-trifluoromethyl-phenyl)-ureido]-phenyl}-1H-pyrazolo[3,4-b]pyridin-6-yl)-2,2-dimethyl-cyclobutyl]-N,N-dimethyl-acetamide] | 1000 to 10000 nM | 19 | – | ≤ 100 nM |
